Measurements from ChEMBL document CHEMBL1126391 (Bioorg Med Chem Lett, 1992).

Tests used:
[1] = molecular target: T1, Human immunodeficiency virus type 1 reverse transcriptase (Human immunodeficiency virus 1, UniProt Q72547); assay: Ability to inhibit HIV-1 IIIB reverse transcriptase catalyzed incorporation of tritiated thymidine triphosphate onto a biotinylated rA.dT template primer
[2] = molecular target: T1, Human immunodeficiency virus type 1 reverse transcriptase; assay: Ability to inhibit HIV-1 IIIB reverse transcriptase catalyzed incorporation of tritiated thymidine triphosphate onto a biotinylated rN.dN template primer
H9 = assay: In vitro antiviral activity against human T-cell line (H9) infected with HIV-1 IIIB was determined as the lowest concentration required to reduce tissue culture supernatant p24 levels on day 7 by 90%; assay type: functional; details: H9, 168 h
C8166 [3] = assay: In vitro anti-viral activity against C8166 cells (human T-cell line), expressed as the lowest test concentration affording complete protection to the culture (Infectious titre); 0.1-1; assay type: functional
[4] = Concentration determined to be cytotoxic (reduced cell number as compared with controls), was recorded after 7 days incubation in the […] assay system; assay type: cell-based; details: human, H9 cells (H9/HIV-IIIB assay system); read-out: Cell toxicity
C8166 [5] = assay: In vitro anti-viral activity against C8166 cells (human T-cell line), expressed as the lowest test concentration affording complete protection to the culture (Infectious titre); assay type: functional
C8166 [6] = assay: In vitro anti-viral activity against C8166 cells (human T-cell line), expressed as the lowest test concentration affording complete protection to the culture (Infectious titre);. 0.1-1; assay type: functional
C8166 [7] = assay: In vitro anti-viral activity against C8166 cells (human T-cell line), expressed as the lowest test concentration affording complete protection to the culture (Infectious titre);. 0.1-0.5; assay type: functional
C8166 [8] = assay: In vitro anti-viral activity against C8166 cells (human T-cell line), expressed as the lowest test concentration affording complete protection to the culture (Infectious titre); 0.01-0.1; assay type: functional
C8166 [9] = assay: In vitro anti-viral activity against C8166 cells (human T-cell line), expressed as the lowest test concentration affording complete protection to the culture (Infectious titre); 0.1-0.5; assay type: functional

Row | IC50 [1] | IC50 [2] | IC90 (H9) | Structure (SMILES) | MCC at 168 h [4] | further results
1 | 2700 nM | 1770 nM | – | CCN1c2ncccc2-c2ncc(C)n2-c2ccc(N3CCCC3)nc21 | – | –
2 | 12200 nM | 3200 nM | 110 nM | CCN1c2ncccc2-c2ncc(C)n2-c2ccc(O)nc21 | > 100 µM | IC100 (C8166 [3]): 0.1 µM
3 | 190 nM | 156 nM | 2.3 nM | CCN1c2ncccc2-c2ncc(C)n2-c2ccc(OC)nc21 | > 10 µM | IC100 (C8166 [5]): 0.01 µM
4 | 598 nM | 258 nM | 8 nM | CCN1c2ncccc2-c2nccn2-c2ccc(OC)nc21 | > 10 µM | IC100 (C8166 [5]): 0.1 µM
5 | > 100000 nM | 62600 nM | – | CCN1c2ncccc2-c2nnc(C(C)C)n2-c2cccnc21 | – | –
6 | 2400 nM | 1100 nM | 250 nM | CCN1c2ncccc2-c2ncc(C)n2-c2ccc(N(C)C)nc21 | > 100 µM | IC100 (C8166 [3]): 0.1 µM
7 | 3900 nM | 2190 nM | 41 nM | CCN1c2ncccc2-c2nccn2-c2ccc(N(C)C)nc21 | 10 µM | IC100 (C8166 [5]): 0.1 µM
8 | 10300 nM | 1500 nM | – | CCN1c2ncccc2C(=O)Nc2c(C)ccnc21 | – | –
9 | 3900 nM | 2000 nM | 82 nM | CCN1c2ncccc2-c2nccn2-c2ccc(N3CCCC3)nc21 | 100 µM | IC100 (C8166 [3]): 0.1 µM
10 | > 100000 nM | – | – | CCN1c2ncccc2-c2nnc(-c3ccccc3)n2-c2cccnc21 | – | –
11 | 5630 nM | 1100 nM | – | CCc1cnc2n1-c1cccnc1N(CC)c1ncccc1-2 | – | –
12 | 198000 nM | – | – | CCN1c2ncccc2-c2nnc(C)n2-c2c(C)ccnc21 | – | –
13 | 23900 nM | 6980 nM | – | CCN1c2ncccc2-c2nccn2-c2ccc(O)nc21 | – | –
14 | 1620 nM | 245 nM | 550 nM | CCN1c2ncccc2-c2nccn2-c2c(C)ccnc21 | > 100 µM | IC100 (C8166 [6]): 0.1 µM
15 | 11500 nM | 7820 nM | – | Cc1nnc2n1-c1cccnc1N(C1CC1)c1ncccc1-2 | – | –
16 | 11200 nM | 775 nM | 70 nM | CCN1c2ncccc2-c2nccn2-c2cccnc21 | 50 µM | IC100 (C8166 [7]): 0.1 µM
17 | 56600 nM | 20200 nM | – | CCc1nnc2n1-c1cccnc1N(CC)c1ncccc1-2 | – | –
18 | 11200 nM | 2750 nM | – | CCN1c2ncccc2-c2nc(C)cn2-c2cccnc21 | – | –
19 | 38900 nM | – | – | CCN1c2ncccc2-c2nnc(C)n2-c2cccnc21 | – | –
20 | 72800 nM | – | – | CCN1c2ncccc2-c2nncn2-c2cccnc21 | – | –
21 | 44500 nM | – | – | CCN1c2ncccc2-c2nncn2-c2c(C)ccnc21 | – | –
22 | 1220 nM | 425 nM | 18 nM | CCN1c2ncccc2-c2ncc(C)n2-c2cccnc21 | > 100 µM | IC100 (C8166 [8]): 0.01 µM
23 | 2050 nM | 217 nM | – | Cc1ccnc2c1-n1ccnc1-c1cccnc1N2C1CC1 | – | –
24 | > 100000 nM | > 100000 nM | – | CCN1c2ncccc2-c2nnc(CN(C)C)n2-c2cccnc21 | – | –
25 | 75100 nM | 6720 nM | – | CCN1c2ncccc2-c2nnnn2-c2c(C)ccnc21 | – | –

Row | Structure (SMILES) | IC50 [1] | IC50 [2] | IC90 (H9) | MCC at 168 h [4] | further results
26 | Cc1ccnc2c1NC(=O)c1cccnc1N2C1CC1 [NEVIRAPINE] | – | – | 78 nM | > 10 µM | IC100 (C8166 [9]): 0.1 µM
